11 compounds from US20110098300A1, “Compounds Comprising A Cyclobutoxy Group” (UCB PHARMA, S.A., priority 2008, published 2011) can be followed below.

The compound `O=C(c1ccc(O[C@H]2C[C@H](N3CCCCC3)C2)cc1)N1CCC(O)CC1` [Compound 5, 1-{4-[(trans-3-piperidin-1-ylcyclobutyl)oxy]benzoyl}piperidin-4-ol] had a melting point of 57.4 to 57.8 °C. Consider `O=C(c1ccc(O[C@H]2C[C@H](N3CCCCC3)C2)cc1)N1CCC(F)(F)CC1` [Compound 2, 4,4-difluoro-1-{4-[(trans-3-piperidin-1-ylcyclobutyl)oxy]benzoyl}piperidine], for which the melting point fell in the range of 145 to 146 °C. The same measure for `O=C(c1ccc(O[C@H]2C[C@H](N3CCCCC3)C2)cc1)N1CCC(F)(F)C1` [Compound 9, 1-(trans-3-{4-[(3,3-difluoropyrrolidin-1-yl)carbonyl]phenoxy}cyclobutyl)piperidine]: 115.2 to 115.8 °C; for `O=C(c1ccc(O[C@H]2C[C@H](N3CCCCC3)C2)cc1)N1CCS(=O)(=O)CC1` [Compound 8, 4-{4-[(trans-3-piperidin-1-ylcyclobutyl)oxy]benzoyl}thiomorpholine 1,1-dioxide]: 186.5 to 186.9 °C. The same measure for `CC(=O)N1CCN(C(=O)c2ccc(O[C@H]3C[C@H](N4CCCCC4)C3)cc2)CC1` [Compound 10, 1-acetyl-4-{4-[(trans-3-piperidin-1-ylcyclobutyl)oxy]benzoyl}piperazine]: 159.2 to 159.8 °C; for `O=C(c1ccc(O[C@H]2C[C@H](N3CCCCC3)C2)cc1)N1CCOCC1` [Compound 1, 4-{4-[(trans-3-piperidin-1-ylcyclobutyl)oxy]benzoyl}morpholine]: 135 to 136 °C. In turn, `O=C(c1ccc(O[C@H]2C[C@H](N3CCCCC3)C2)cc1)N1CCCCC1` [Compound 3, 1-{trans-3-[4-(piperidin-1-ylcarbonyl)phenoxy]cyclobutyl}piperidine] displayed a melting point of 101.1 to 102.2 °C.

The compound `O=C(c1ccc(O[C@H]2C[C@H](N3CCCCC3)C2)cc1)N1CC(O)C1` [Compound 11, 1-{4-[(trans-3-piperidin-1-ylcyclobutyl)oxy]benzoyl}azetidin-3-ol] gave a melting point of 82.2 to 82.4 °C. With `O=C(Nc1cnccc1Cl)c1ccc(O[C@H]2C[C@H](N3CCCCC3)C2)cc1` [Compound 12, N-(4-chloropyridin-3-yl)-4-[(trans-3-piperidin-1-ylcyclobutyl)oxy]benzamide], the melting point came out at 151.6 °C.

Compound `CC(C)N1CCN(C(=O)c2ccc(O[C@H]3C[C@H](N4CCCCC4)C3)cc2)CC1` [Compound 4, 1-isopropyl-4-{4-[(trans-3-piperidin-1-ylcyclobutyl)oxy]benzoyl}piperazine] returned a melting point of 98.5 to 99 °C. As for `O=C(NCC(F)(F)F)c1ccc(O[C@H]2C[C@H](N3CCCCC3)C2)cc1` [Compound 13, 4-[(trans-3-piperidin-1-ylcyclobutyl)oxy]-N-(2,2,2-trifluoroethyl)benzamide], the melting point is 152.9 to 153.4 °C.
